Measured values reported in patent US3992446A, “Substituted aminochlorobenzylamino guanidine compounds” (American Cyanamid Company, priority 1975, dated 1976).
Where a name gives a salt, the structure may show the parent alone. Read-outs that look alike come from different tables or passages of the source.

Tests used:
Type in all cases: in vivo
[1] = test system: Eimeria tenella; test: anticoccidial activity against Eimeria tenella in inoculated Peterson Cross Cockerels, medicated diet, survival; conditions: 168 h; for responders at 15 µg/mL: 15 parts per million in diet; for responders at 20 µg/mL: 20 parts per million in diet; for responders at 120 µg/mL: 120 parts per million in diet
Description: (§1) For example, these compounds have anticoccidial activity against Eimeria tenella as shown by the following test: The animals were Peterson Cross Cockerels, 7 days old and of approximately equal size and weight. These cockerels were divided into groups and the groups were placed in separate cages with wire floors. Medicated and control diets were then presented to the groups of birds 2 days before inoculation while they were still in uncontaminated quarters. During the entire period of the tests, the birds ate and drank ad libitum. Control groups were maintained on a standard unmedicated commercial type chicken diet. Test groups were maintained on the same standard diet in which a measured concentration of test compound had been incorporated homogeneously. The cockerels were inoculated once orally with sporulated oocysts of Eimeria tenella. The number of oocysts inoculated directly into the crops of all cockerels in the tests was sufficient to produce high mortality in the untreated controls. […] Seven days following inoculation the tests were terminated and the mortality rate was recorded for each group. […] The tests represent very severe laboratory challenges, and lower concentrations than those shown would be effective under practical field conditions.

[2] = test system: coccidia; test: anti-coccidial activity, comparison with prior art compounds of Lieber et al.
[3] = test system: E. mivati; test: anticoccidial activity against E. mivati in chickens (survival, weight gain); conditions: for % Survival / Weight gain: mivati; for Weight gain: 7 days after inoculation
Description: as §1
(§2) The compounds of the present invention have high activity against other coccidial species in chickens. […] Methods used were essentially identical with those previously cited with appropriate modifications. Weight gains were determined 7 days after single experimental inoculations with the designated species of coccidia.

[4] = test system: E. maxima; test: anticoccidial activity against E. maxima in chickens (survival, weight gain); conditions: for % Survival / Weight gain: maxima; for Weight gain: 7 days after inoculation
Description: as §1, §2

[5] = test system: E. brunetti; test: anticoccidial activity against E. brunetti in chickens (survival, weight gain); conditions: for % Survival / Weight gain: brunetti; for Weight gain: 7 days after inoculation
Description: as §1, §2

[6] = test system: Eimeria necatrix; test: anticoccidial activity against Eimeria necatrix in chickens (survival, weight gain); conditions: for % Survival / Weight gain: necatrix; for Weight gain: 7 days after inoculation
Description: as §1, §2

[7] = test system: E. acervulina; test: anticoccidial activity against E. acervulina in chickens (survival, weight gain)
Description: as §1, §2

[8] = 30 parts per million in diet, 7 days after inoculation, read-out: % Survival
[9] = 10 parts per million in diet, 7 days after inoculation, read-out: % Survival

SMILES: N#Cc1ccc(C=NNC(=N)NN=Cc2ccc(C#N)cc2)cc1 [1,3-Bis(4-cyanobenzylideneamino)guanidine Nitrate]
- responders at 30 µg/mL ([1]; read-out: % Survival): 80%
- responders at 60 µg/mL ([1]; read-out: % Survival): 100%

SMILES: Cl.N=C(NN=Cc1ccc(I)cc1)NN=Cc1ccc(I)cc1 [1,3-Bis(4-iodobenzylideneamino)guanidine Hydrochloride]
- responders at 30 µg/mL [1, 8]: 55%
- Activity (anti-coccidial) ([2]; dosage 30 parts per million): active

SMILES: Cl.N=C(NN=Cc1ccc(Cl)cc1)NN=Cc1ccc(Cl)cc1 [1,3-bis(4-chlorobenzylideneamino)-guanidine hydrochloride]
- responders at 8.5 µg/mL ([1]; read-out: % Survival): 45%
- responders at 17 µg/mL ([1]; read-out: % Survival): 75%
- responders at 33 µg/mL ([1]; read-out: % Survival): 100%
- % Survival ([3]; 15 ppm in diet): 100%
- Weight gain ([3]; 15 ppm in diet): 86 % control
- % Survival ([3]; 30 ppm in diet): 100%
- Weight gain ([3]; 30 ppm in diet): 91 % control
- % Survival ([3]; 45 ppm in diet): 100%
- Weight gain ([3]; 45 ppm in diet): 100 % control
- Activity (anti-coccidial) ([2]; dosage 8.5 parts per million): active
- % Survival ([4]; 15 ppm in diet): 100%
- Weight gain ([4]; 15 ppm in diet): 101 % control
- % Survival ([4]; 30 ppm in diet): 100%
- Weight gain ([4]; 30 ppm in diet): 95 % control
- % Survival ([4]; 45 ppm in diet): 100%
- Weight gain ([4]; 45 ppm in diet): 100 % control
- % Survival ([5]; 15 ppm in diet): 100%
- Weight gain ([5]; 15 ppm in diet): 100 % control
- % Survival ([5]; 30 ppm in diet): 100%
- Weight gain ([5]; 30 ppm in diet): 95 % control

SMILES: CC(=O)N=C(NN=Cc1ccc(Cl)cc1)NN=Cc1ccc(Cl)cc1 [2-acetyl-1,3-bis(4-chlorobenzylideneamino)guanidine]
- responders at 5 µg/mL ([1]; 5 parts per million in diet, 7 days after inoculation, read-out: % Survival): 67%
- responders at 10 µg/mL [1, 9]: 95%
- responders at 30 µg/mL [1, 8]: 100%

SMILES: N=C(NN=Cc1ccc(Cl)c(Cl)c1)NN=Cc1ccc(Cl)c(Cl)c1 [1,3-Bis(3,4-dichlorobenzylideneamino)guanidine Nitrate]
- responders at 60 µg/mL ([1]; read-out: % Survival): 100%

SMILES: N=C(NNCc1ccc(Cl)cc1)NNCc1ccc(Cl)cc1 [1,3-bis(4-chlorobenzylamino)guanidine]
- responders at 10 µg/mL [1, 9]: 90%
- responders at 15 µg/mL ([1]; 7 days after inoculation): 90%
- responders at 20 µg/mL ([1]; 7 days after inoculation): 100%

SMILES: N=C(NN=Cc1ccc(C(F)(F)F)cc1)NN=Cc1ccc(C(F)(F)F)cc1 [1,3-Bis(4-trifluoromethylbenzylideneamino)guanidine hydrochloride]
- responders at 120 µg/mL ([1]; 7 days after inoculation): 100%

SMILES: O=Cc1ccccc1O [11) salicylaldehyde, reference compound]
- Activity (anti-coccidial) ([2]; dosage 125 parts per million): inactive

SMILES: N=C(NN=Cc1ccc(F)cc1)NN=Cc1ccc(F)cc1 [1,3-Bis(4-fluorobenzylideneamino)guanidine Nitrate]
- responders at 93 µg/mL ([1]; read-out: % Survival): 80%

SMILES: N=C(NN=Cc1ccc(OC(F)(F)F)cc1)NN=Cc1ccc(OC(F)(F)F)cc1 [1,3-bis(4-Trifluoromethoxybenzylideneamino)guanidine Hydrochloride]
- responders at 5 µg/mL ([1]; read-out: % Survival): 80%
- responders at 10 µg/mL ([1]; read-out: % Survival): 100%

SMILES: CC(=O)c1ccccc1 [14) acetophenone, reference compound]
- Activity (anti-coccidial) ([2]; dosage 250 parts per million): inactive

SMILES: N=C(NN=Cc1ccc(Cl)cc1)NN=Cc1ccc(Cl)cc1 [1,3-bis(4-chlorobenzylideneamino)guanidine methosulfate]
- responders at 20 µg/mL ([1]; 7 days after inoculation): 59%
- responders at 40 µg/mL ([1]; 40 parts per million in diet, 7 days after inoculation): 90%
- responders at 60 µg/mL ([1]; 60 parts per million in diet, 7 days after inoculation, read-out: % Survival): 98%
- % Survival ([6]; 15 ppm in diet): 100%
- Weight gain ([6]; 15 ppm in diet): 80 % control
- % Survival ([6]; 30 ppm in diet): 100%
- Weight gain ([6]; 30 ppm in diet): 103 % control
- Activity (anti-coccidial) ([2]; dosage 20 parts per million): active

SMILES: N=C(NN=Cc1ccc(Cl)cc1)NN=Cc1ccc(Cl)cc1 [1,3-Bis(4-chlorobenzylideneamino)guanidine]
- protection from poor weight gains due to E. mivati ([3]; treated chickens): completely protected
- protection from mortality due to Eimeria necatrix ([6]; treated chickens): completely protected
- protection from poor weight gains due to E. maxima ([4]; treated chickens): completely protected
- protection from poor weight gains due to E. brunetti ([5]; treated chickens): completely protected
- protection from poor weight gains due to E. acervulina ([7]; treated chickens): completely protected

SMILES: N=C(NN=Cc1ccc(Cl)cc1)NNCc1ccc(Cl)cc1 [1-(4-Chlorobenzylamino)-3-(4-chlorobenzylideneamino)guanidine]
- responders at 15 µg/mL ([1]; 7 days after inoculation): 90%
- responders at 30 µg/mL [1, 8]: 100%

SMILES: N=C(NN=Cc1ccc(Br)cc1)NN=Cc1ccc(Br)cc1.O=[N+]([O-])O [1,3-Bis(4-bromobenzylideneamino)guanidine Nitrate]
- responders at 17 µg/mL ([1]; read-out: % Survival): 80%
- responders at 35 µg/mL ([1]; read-out: % Survival): 95%
- Activity (anti-coccidial) ([2]; dosage 17 parts per million): active

SMILES: O=Cc1ccccc1O [12) salicylaldehyde, reference compound]
- Activity (anti-coccidial) ([2]; dosage 200 parts per million): inactive

SMILES: O=Cc1ccc2c(c1)OCO2 [9) piperonal, reference compound]
- Activity (anti-coccidial) ([2]; dosage 125 parts per million): inactive

SMILES: N=C(NN=Cc1ccc(Cl)cc1)NN=Cc1ccc(Cl)cc1.O=[N+]([O-])O [1,3-Bis(4-chlorobenzylideneamino)guanidine nitrate]
- responders at 18 µg/mL ([1]; read-out: % Survival): 77%
- responders at 36 µg/mL ([1]; read-out: % Survival): 96%
- responders at 54 µg/mL ([1]; read-out: % Survival): 100%
- Activity (anti-coccidial) ([2]; dosage 18 parts per million): active
- % Survival ([7]; acervulina, 45 ppm in diet): 100%
- Weight gain ([7]; acervulina, 45 ppm in diet, 7 days after inoculation): 99 % control

SMILES: CN(N=Cc1ccc(Cl)cc1)C(=N)N(C)N=Cc1ccc(Cl)cc1 [1,3-Bis(4-chlorobenzylideneamino)-1,3-dimethylguanidine hydrobromide]
- responders at 30 µg/mL [1, 8]: 100%
- responders at 120 µg/mL ([1]; 7 days after inoculation): 100%
